Laboratory results taken from patent publication US10538512B2, “Aminoacylindazole immunomodulators for treatment of autoimmune diseases” (The Rockefeller University, priority 2016, dated 2020).

Tests used:
Human FXIIa = biological target: T1, Human FXIIa (Homo sapiens, UniProt P00748); assay: Factor XIIa (FXIIa) inhibitory activity, chromogenic substrate assay; type: biochemical; conditions: Human FXIIa 12.5 nM, Pefachrome XIIa 400 μM, 10 min preincubation
T1 construct: active coagulation factor XII (FXIIa); purchased Enzyme Research Labs
T1 sequence (P00748 373-615 limits assumed): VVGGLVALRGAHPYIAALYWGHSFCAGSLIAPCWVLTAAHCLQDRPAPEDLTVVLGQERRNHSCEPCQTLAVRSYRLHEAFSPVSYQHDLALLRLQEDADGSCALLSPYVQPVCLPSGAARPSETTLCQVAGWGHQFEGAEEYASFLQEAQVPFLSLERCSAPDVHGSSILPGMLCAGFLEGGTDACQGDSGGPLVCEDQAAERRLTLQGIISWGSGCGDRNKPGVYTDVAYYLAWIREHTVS
T1 sequence (P00748 20-372 partner limits assumed): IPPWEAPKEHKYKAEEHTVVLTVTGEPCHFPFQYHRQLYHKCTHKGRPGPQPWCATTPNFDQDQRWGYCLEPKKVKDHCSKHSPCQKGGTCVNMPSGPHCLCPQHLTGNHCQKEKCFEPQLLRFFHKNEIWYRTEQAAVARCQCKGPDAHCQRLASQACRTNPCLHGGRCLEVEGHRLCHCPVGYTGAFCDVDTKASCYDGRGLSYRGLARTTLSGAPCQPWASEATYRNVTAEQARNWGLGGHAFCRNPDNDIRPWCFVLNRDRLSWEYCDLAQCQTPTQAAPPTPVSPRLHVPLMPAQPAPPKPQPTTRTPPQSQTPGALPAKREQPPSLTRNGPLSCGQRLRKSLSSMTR
Summary of the method: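 Activity was taken as the rate of absorbance increase at 405 nm, read at 37 °C after adding 400 μM (final) Pefachrome XIIa. Compounds spanning roughly 1–100 μM were first preincubated with enzyme for 10 min at room temperature in HEPES pH 7.4-buffered HBSS/TBS-Tween.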

Human alpha-thrombin = biological target: T2, Human alpha-thrombin (Homo sapiens, UniProt P00734); assay: Thrombin counterscreen for selectivity, fluorogenic substrate assay; type: biochemical; conditions: Human alpha-thrombin 12.5 nM, Boc-Val-Pro-Arg-AMC 20 μM, 10 min preincubation
T2 construct: Human alpha-thrombin (Enzyme Research Labs); purchased Enzyme Research Labs
Summary of the method: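 Compounds, about 1–100 μM, preincubated 10 min at room temperature with enzyme, then Boc-Val-Pro-Arg-AMC added at 20 μM final.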

| SMILES | IC50 (Human FXIIa) [µM] | IC50 (Human alpha-thrombin) [µM] |
| --- | --- | --- |
| Nc1c2c(nn1C(=O)C1CCNc3ccc(F)cc31)CCC(NC(=O)OCc1ccccc1)C2 (single isomer, unassigned) [Example 190, Benzyl N-[(5S*)-3-amino-2-[(6-fluoro-1,2,3,4-tetrahydroquinolin-4-yl)carbonyl]-4,5,6,7-tetrahydro-2H-indazol-5-yl]carbamate] | 0.4 | > 60 |
| Cc1cccc2c1NCC[C@H]2C(=O)n1nc2c(c1N)CC[C@H](O)C2 (single isomer, unassigned) [Example 197, ((6S*)-3-amino-6-hydroxy-4,5,6,7-tetrahydroindazol-2-yl)((4R*)-8-methyl-1,2,3,4-tetrahydroquinolin-4-yl)methanone] | 1.5 | > 150 |
| Cc1cccc2c1NCC[C@@H]2C(=O)n1nc2c(c1N)CC[C@H](O)C2 (single isomer, unassigned) [Example 198, ((6S*)-3-amino-6-hydroxy-4,5,6,7-tetrahydroindazol-2-yl)((4S*)-8-methyl-1,2,3,4-tetrahydroquinolin-4-yl)methanone] | 0.1 | > 100 |
| Nc1c2c(nn1C(=O)[C@H]1CCNc3c(Cl)cccc31)C[C@H](O)CC2 (single isomer, unassigned) [Example 209, ((6R*)-3-amino-6-hydroxy-4,5,6,7-tetrahydroindazol-2-yl)((4S*)-8-chloro-1,2,3,4-tetrahydroquinolin-4-yl)methanone] | 0.04 | > 100 |
| Nc1c2c(nn1C(=O)[C@@H]1CCNc3c(Cl)cccc31)C[C@H](O)CC2 (single isomer, unassigned) [Example 210, ((6R*)-3-amino-6-hydroxy-4,5,6,7-tetrahydroindazol-2-yl)((4R*)-8-chloro-1,2,3,4-tetrahydroquinolin-4-yl)methanone] | 3.3 | > 100 |
| Cc1cccc2c1NCC[C@@H]2C(=O)n1nc2c(c1N)C[C@H](O)CC2 (single isomer, unassigned) [Example 218, ((5R*)-3-amino-5-hydroxy-4,5,6,7-tetrahydro-2H-indazol-2-yl)((4S*)-8-methyl-1,2,3,4-tetrahydroquinolin-4-yl)methanone] | 0.05 | > 90 |
| Nc1c2c(nn1C(=O)[C@H]1CCNc3ccc(F)cc31)CC[C@H](N)C2 (stereo in doubt) [Example 192, ((5S*)-3,5-diamino-4,5,6,7-tetrahydroindazol-2-yl)((4S*)-6-fluoro-1,2,3,4-tetrahydroquinolin-4-yl)methanone] | 0.08 | > 90 |
| Cc1cc2c(C(=O)N3N=C(N)C4CCCCC43)cccc2[nH]1 (stereo not drawn) [Example 10, (3-amino-3a,4,5,6,7,7a-hexahydroindazol-1-yl)(2-methyl-1H-indol-4-yl)methanone] | 90 | > 100 |
| O=C(Nc1[nH]nc2c1CCCC2)C1OCCc2ccccc21 (stereo not drawn) [Example 14, N-(4,5,6,7-tetrahydro-2H-indazol-3-yl)isochroman-1-carboxamide] | > 10 | > 10 |
| Cc1cc2c(C(=O)n3nc4c(c3N)CCCC4)cccc2n1C [Example 22, (3-Amino-4,5,6,7-tetrahydroindazol-2-yl)(1,2-dimethyl-1H-indol-4-yl)methanone] | 0.04 | 20 |
| O=C(c1cccc2[nH]ccc12)n1cc2c(n1)CCCC2 [Example 27, (1H-indol-4-yl)(4,5,6,7-tetrahydroindazol-2-yl)methanone] | 0.4 | 6 |
| CCn1ccc2c(C(=O)n3nc4c(c3N)CCCC4)cccc21 [Example 28, (3-amino-4,5,6,7-tetrahydroindazol-2-yl)(1-ethyl-1H-indol-4-yl)methanone] | 0.06 | 36 |
| CC(C)n1ccc2c(C(=O)n3nc4c(c3N)CCCC4)cccc21 [Example 29, (3-amino-4,5,6,7-tetrahydroindazol-2-yl)(1-isopropyl-1H-indol-4-yl)methanone] | 0.15 | > 50 |
| Nc1c2c(nn1C(=O)c1cccc3c1ccn3Cc1ccccc1)CCCC2 [Example 30, (3-amino-4,5,6,7-tetrahydroindazol-2-yl)(1-benzyl-1H-indol-4-yl)methanone] | 5 | > 70 |
| CC(C)(C)c1cccc(C(=O)n2nc3c(c2N)CCCC3)c1 [Example 31, (3-amino-4,5,6,7-tetrahydroindazol-2-yl)(3-tert-butylphenyl)methanone] | 0.15 | > 50 |
| Nc1c2c(nn1C(=O)c1csc3ccccc13)CCCC2 [Example 32, (3-amino-4,5,6,7-tetrahydroindazol-2-yl)(benzo[b]thiophen-3-yl)methanone] | 0.15 | > 50 |
| Cc1csc(C)c1C(=O)n1cc2c(n1)CCCC2 [Example 35, 2-[(2,4-dimethylthiophen-3-yl)carbonyl]-4,5,6,7-tetrahydro-2H-indazole] | > 100 | > 100 |

| SMILES | IC50 (Human FXIIa) [µM] | IC50 (Human alpha-thrombin) [µM] |
| --- | --- | --- |
| CCCn1ccc2c(C(=O)n3nc4c(c3N)CCCC4)cccc21 [Example 36, (3-amino-4,5,6,7-tetrahydroindazol-2-yl)(1-propyl-1H-indol-4-yl)methanone] | 0.2 | > 80 |
| CCC(C)n1ccc2c(C(=O)n3nc4c(c3N)CCCC4)cccc21 (stereo not drawn) [Example 37, (3-amino-4,5,6,7-tetrahydroindazol-2-yl)(1-sec-butyl-1H-indol-4-yl)methanone] | 2.5 | > 75 |
| CCn1c(C)cc2c(C(=O)n3nc4c(c3N)CCCC4)cccc21 [Example 38, (3-amino-4,5,6,7-tetrahydroindazol-2-yl)(1-ethyl-2-methyl-1H-indol-4-yl)methanone] | 0.04 | 44 |
| CCc1ccccc1C(=O)n1nc2c(c1N)CCCC2 [Example 40, (3-amino-4,5,6,7-tetrahydroindazol-2-yl)(2-ethylphenyl)methanone] | 15 | > 100 |
| Nc1c2c(nn1C(=O)c1coc3ccccc13)CCCC2 [Example 41, (3-amino-4,5,6,7-tetrahydroindazol-2-yl)(benzofuran-3-yl)methanone] | 1.2 | > 100 |
| Nc1c2c(nn1C(=O)c1c[nH]c3ccccc13)CCCC2 [Example 42, (3-amino-4,5,6,7-tetrahydroindazol-2-yl)(1H-indol-3-yl)methanone] | 11 | > 100 |
| CCn1cc(C(=O)n2nc3c(c2N)CCCC3)c2ccccc21 [Example 43, (3-amino-4,5,6,7-tetrahydroindazol-2-yl)(1-ethyl-1H-indol-3-yl)methanone] | 7.5 | > 100 |
| CCn1c(C)c(C(=O)n2nc3c(c2N)CCCC3)c2ccccc21 [Example 45, (3-amino-4,5,6,7-tetrahydroindazol-2-yl)(1-ethyl-2-methyl-1H-indol-3-yl)methanone] | 12 | > 100 |
| Nc1c2c(nn1C(=O)C1CCc3ccccc31)CCCC2 (stereo not drawn) [Example 46, (3-amino-4,5,6,7-tetrahydroindazol-2-yl)(2,3-dihydro-1H-inden-1-yl)methanone] | 7.5 | > 50 |
| Nc1c2c(nn1C(=O)c1cccc3[nH]cnc13)CCCC2 [Example 48, (3-amino-4,5,6,7-tetrahydroindazol-2-yl)(1H-benzo[d]imidazol-4-yl)methanone] | > 100 | > 100 |
| CCc1cc2c(C(=O)n3nc4c(c3N)CCCC4)cccc2[nH]1 [Example 50, (3-amino-4,5,6,7-tetrahydroindazol-2-yl)(2-ethyl-1H-indol-4-yl)methanone] | 0.01 | 25 |
| Cc1cc2ccc(C(=O)n3nc4c(c3N)CCCC4)cc2o1 [Example 60, (3-amino-4,5,6,7-tetrahydroindazol-2-yl)(2-methylbenzofuran-6-yl)methanone] | 17 | 22 |
| Cc1cc2ccc(C(=O)n3nc(N)c4c3CCCC4)cc2o1 [Example 61, (3-amino-4,5,6,7-tetrahydroindazol-1-yl)(2-methylbenzofuran-6-yl)methanone] | > 50 | 20 |
| Nc1nn(C(=O)C2CCNc3ccccc32)c2ccccc12 (stereo not drawn) [Example 77, (3-amino-1H-indazol-1-yl)(1,2,3,4-tetrahydroquinolin-4-yl)methanone] | > 100 | > 100 |
| COc1ccc(C(=O)n2nc3c(c2N)CCCC3)c2cc[nH]c12 [Example 80, (3-amino-4,5,6,7-tetrahydroindazol-2-yl)(7-methoxy-1H-indol-4-yl)methanone] | 0.25 | 68 |
| Cc1cc2c([nH]1)CCCC2C(=O)n1nc2c(c1N)CCCC2 (stereo not drawn) [Example 81, (3-amino-4,5,6,7-tetrahydroindazol-2-yl)(2-methyl-4,5,6,7-tetrahydro-1H-indol-4-yl)methanone] | 0.3 | > 50 |
